Source: patent publication US8993839B2, “Plant-based production of heterologous proteins” (The Regents of the University of California, priority 2010, dated 2015)

Biological target: Acidothermus cellulolyticus β-1,4-endoglucanase E1 (P. pastoris-produced) (Acidothermus cellulolyticus, UniProt P54583)
Test: Michaelis-Menten kinetics of purified E1 (produced in P. pastoris, IMAC purified): cleavage of MUC to cellobiose and MU at various temperatures
Format: biochemical
Conditions: substrate MUC, E1 concentration by Bradford assay
Method: Endoglucanase activity assay: Endoglucanase (E1) cleaves methylumbelliferyl-tagged cellobiose (MUC), releasing methylumbelliferone (MU). The MU fluorescence can be measured to determine E1 activity. The relative fluorescence readings of 0.024 to 3.0 μM MU solutions were used to create a linear standard curve. Samples containing E1 were diluted so the concentration of MU released fell within the standard curve. A 60 μl aliquot of diluted supernatant was added to 540 μl of acetate buffer (200 mM acetate, pH 5.5, 100 mM NaCl) and 200 μl of substrate (500 μM MUC). 200 μl of reaction was sampled at time zero and after 30 minutes and added to 800 μl of stop buffer (150 mM glycine, pH 10). The change in fluorescence over time was measured with a VersaFluor fluorometer (Bio-Rad). Fluorescence was converted to an activity, and the specific activity reported in the literature was used to approximate the concentration of E1 in Pichia supernatants. The Michaelis-Menten kinetic parameters of purified endoglucanase were determined. The E1 was produced in P. pastoris and purified by IMAC (immobilized metal affinity chromatography). E1 cleaves the substrate (MUC) into cellobiose and a fluorophore (MU), the concentration of which can be monitored over time. When run at 65° C. and […] substrate, this is the reaction used for the activity assay for E1 in plant extracts and yeast cultures. In this set of experiments, the substrate concentration was varied to determine the kinetic parameters at different temperatures. The rate for a reaction displaying Michaelis-Menten kinetics is shown in Equation 1. The rate depends on the catalysis rate (kcat), the total enzyme concentration (ET), the adsorption/desorption rates which are lumped into the Michaelis-Menten constant (KM), and the substrate concentration (S). At high substrate concentrations (S>>KM), the rate approaches a maximum, and […] is often written as Vmax. The parameters Vmax and KM can be determined experimentally by varying the substrate concentration (S) and measuring the reaction rate (V) at each concentration. Equation 1 can be rearranged as a linear equation (Equation 2). When the reciprocal of the reaction rate (V) is plotted against the reciprocal of the substrate concentration (S), a line fitting the data points can be used to determine KM/Vmax (the slope) and 1/Vmax (y-intercept). A Bradford assay was used to determine the E1 protein concentration in each sample, and this value of ET was used to calculate the kcat values in Table 1. Table 1 depicts a summary of Michaelis-Menten parameters for E1-catalyzed degradation of MUC to MU at various temperatures.

Sequence of Acidothermus cellulolyticus β-1,4-endoglucanase E1 (P. pastoris-produced) (P54583 other isoform, or with tags, fused parts or gaps): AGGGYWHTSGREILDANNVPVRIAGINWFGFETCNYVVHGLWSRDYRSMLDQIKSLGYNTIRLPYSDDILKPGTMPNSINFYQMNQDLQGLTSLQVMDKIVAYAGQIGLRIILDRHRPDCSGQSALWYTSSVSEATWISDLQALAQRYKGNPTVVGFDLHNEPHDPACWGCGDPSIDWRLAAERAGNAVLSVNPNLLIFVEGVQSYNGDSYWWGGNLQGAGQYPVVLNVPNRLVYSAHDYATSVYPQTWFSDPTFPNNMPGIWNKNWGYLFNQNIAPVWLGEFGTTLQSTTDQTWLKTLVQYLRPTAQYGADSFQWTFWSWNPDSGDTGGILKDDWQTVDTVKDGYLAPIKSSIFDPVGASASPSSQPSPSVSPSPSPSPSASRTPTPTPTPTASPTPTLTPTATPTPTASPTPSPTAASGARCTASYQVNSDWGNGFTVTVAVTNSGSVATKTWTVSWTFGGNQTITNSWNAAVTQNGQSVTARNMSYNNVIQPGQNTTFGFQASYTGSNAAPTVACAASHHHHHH

## Cc1cc(=O)oc2cc(O[C@@H]3O[C@H](CO)[C@@H](O[C@@H]4O[C@H](CO)[C@@H](O)[C@H](O)[C@H]4O)[C@H](O)[C@H]3O)ccc12 [MUC, methylumbelliferyl-tagged cellobiose]
50 °C
  kcat: 106 ± 5 L/min
65 °C
  kcat: 309 ± 13 L/min
80 °C
  kcat: 667 ± 92 L/min
93 °C, uncertainty approaches 100%, not used further
  kcat: 292 ± 284 L/min
